Results reported in patent US10577368B2 (The United States of America, as represented by the …, priority 2013, dated 2020).

Key:
[1] = target: 5HT2A; assay: Off-target binding, 5HT2A
[2] = Stability in simulated fluids (gastric, intestinal); assay type: in vitro ADME
Description: (§1) In vitro stability parameters for selected compounds are set forth in Table 6, in accordance with an embodiment of the invention.

[3] = target: Alpha 2B adrenergic receptor (Homo sapiens (Human), UniProt P18089); assay: Off-target binding, α2B; details: read-out: Ki at α2B
Chain of Alpha 2B adrenergic receptor (P18089 whole entry): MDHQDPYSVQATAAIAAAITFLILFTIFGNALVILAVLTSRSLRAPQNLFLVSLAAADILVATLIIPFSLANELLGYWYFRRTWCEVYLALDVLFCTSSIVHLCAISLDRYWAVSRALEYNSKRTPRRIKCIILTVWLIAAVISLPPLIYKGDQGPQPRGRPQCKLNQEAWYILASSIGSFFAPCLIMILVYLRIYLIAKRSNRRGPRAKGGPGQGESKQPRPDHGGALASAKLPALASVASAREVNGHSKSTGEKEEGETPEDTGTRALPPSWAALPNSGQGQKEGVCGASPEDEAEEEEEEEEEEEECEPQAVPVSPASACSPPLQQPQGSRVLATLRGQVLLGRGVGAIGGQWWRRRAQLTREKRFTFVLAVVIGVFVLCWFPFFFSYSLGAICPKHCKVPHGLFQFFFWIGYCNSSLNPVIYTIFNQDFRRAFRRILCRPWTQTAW
Description: (§2) The results are set forth below.

[4] = target: hA3AR (Homo sapiens (Human), UniProt P0DMS8); assay: Radioligand binding at hA3AR, CHO cell membranes, [125I]I-AB-MECA
[5] = target: h5HT2B (Homo sapiens (Human), UniProt P41595); assay: Off-target binding, 5HT2B; details: read-out: Ki at 5HT2B
Chain of h5HT2B (P41595 whole entry): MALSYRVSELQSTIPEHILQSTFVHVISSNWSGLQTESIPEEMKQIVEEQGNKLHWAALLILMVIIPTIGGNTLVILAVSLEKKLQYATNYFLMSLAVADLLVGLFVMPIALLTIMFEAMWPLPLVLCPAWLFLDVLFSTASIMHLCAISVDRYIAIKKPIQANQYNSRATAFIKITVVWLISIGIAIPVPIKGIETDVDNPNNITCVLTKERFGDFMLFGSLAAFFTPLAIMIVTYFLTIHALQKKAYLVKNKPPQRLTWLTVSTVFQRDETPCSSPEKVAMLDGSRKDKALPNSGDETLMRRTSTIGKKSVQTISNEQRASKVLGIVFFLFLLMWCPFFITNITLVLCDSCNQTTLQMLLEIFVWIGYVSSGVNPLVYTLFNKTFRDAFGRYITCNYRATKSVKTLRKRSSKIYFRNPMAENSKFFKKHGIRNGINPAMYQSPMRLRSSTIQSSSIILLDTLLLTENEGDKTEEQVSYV

[6] = target: CYP 3A4 (Homo sapiens (Human), UniProt P08684); assay: CYP inhibition, 3A4; assay type: in vitro ADME
Chain of CYP 3A4 (P08684 whole entry): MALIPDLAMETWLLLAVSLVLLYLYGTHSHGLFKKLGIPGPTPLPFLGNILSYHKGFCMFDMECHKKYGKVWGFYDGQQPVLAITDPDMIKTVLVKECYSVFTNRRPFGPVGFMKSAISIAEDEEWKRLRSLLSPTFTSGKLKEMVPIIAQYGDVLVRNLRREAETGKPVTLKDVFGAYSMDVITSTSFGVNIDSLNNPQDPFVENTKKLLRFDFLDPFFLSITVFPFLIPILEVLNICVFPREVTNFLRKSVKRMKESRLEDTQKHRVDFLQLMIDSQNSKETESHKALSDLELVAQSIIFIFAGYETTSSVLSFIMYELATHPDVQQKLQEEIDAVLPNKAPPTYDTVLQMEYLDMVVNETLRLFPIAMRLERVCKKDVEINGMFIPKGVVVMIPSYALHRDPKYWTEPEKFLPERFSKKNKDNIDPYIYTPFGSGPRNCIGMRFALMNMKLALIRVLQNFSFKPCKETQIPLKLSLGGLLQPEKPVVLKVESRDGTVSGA
Description: as §1

[7] = target: mA1AR (Mus musculus (Mouse), UniProt Q60612); assay: Competition binding at mA1AR, HEK293 cell membranes; details: mouse (m); inhibition of binding at 10 μM
Chain of mA1AR (Q60612 whole entry): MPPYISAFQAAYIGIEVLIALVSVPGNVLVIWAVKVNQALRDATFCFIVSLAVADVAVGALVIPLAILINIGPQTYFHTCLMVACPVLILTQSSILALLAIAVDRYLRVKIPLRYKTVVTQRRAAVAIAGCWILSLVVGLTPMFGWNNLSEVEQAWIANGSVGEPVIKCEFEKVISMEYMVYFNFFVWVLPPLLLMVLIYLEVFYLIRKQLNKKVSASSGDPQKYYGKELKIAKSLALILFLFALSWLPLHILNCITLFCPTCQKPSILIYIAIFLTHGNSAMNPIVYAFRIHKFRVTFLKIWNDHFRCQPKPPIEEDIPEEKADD

[8] = target: hH1 histamine receptor (Homo sapiens (Human), UniProt P35367); assay: Off-target binding, H1
Chain of hH1 histamine receptor (P35367 whole entry): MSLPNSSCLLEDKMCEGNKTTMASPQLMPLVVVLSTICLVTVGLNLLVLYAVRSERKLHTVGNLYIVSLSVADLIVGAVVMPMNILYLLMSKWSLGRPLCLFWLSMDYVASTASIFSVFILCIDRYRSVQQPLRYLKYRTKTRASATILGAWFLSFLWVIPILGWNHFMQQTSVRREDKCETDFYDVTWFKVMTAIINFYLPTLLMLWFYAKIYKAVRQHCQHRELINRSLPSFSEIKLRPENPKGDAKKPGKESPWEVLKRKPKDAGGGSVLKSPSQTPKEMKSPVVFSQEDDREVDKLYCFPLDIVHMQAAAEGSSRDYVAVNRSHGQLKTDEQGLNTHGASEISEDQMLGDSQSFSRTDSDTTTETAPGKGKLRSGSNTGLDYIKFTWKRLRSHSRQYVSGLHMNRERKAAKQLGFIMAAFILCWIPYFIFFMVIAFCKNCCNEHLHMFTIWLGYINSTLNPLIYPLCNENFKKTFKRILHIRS

[9] = Stability in liver microsomes, human; assay type: in vitro ADME
[10] = target: mA2AAR (Mus musculus (Mouse), UniProt Q60613); assay: Competition binding at mA2AAR, HEK293 cell membranes; details: mouse (m); inhibition of binding at 10 μM
Chain of mA2AAR (Q60613 whole entry): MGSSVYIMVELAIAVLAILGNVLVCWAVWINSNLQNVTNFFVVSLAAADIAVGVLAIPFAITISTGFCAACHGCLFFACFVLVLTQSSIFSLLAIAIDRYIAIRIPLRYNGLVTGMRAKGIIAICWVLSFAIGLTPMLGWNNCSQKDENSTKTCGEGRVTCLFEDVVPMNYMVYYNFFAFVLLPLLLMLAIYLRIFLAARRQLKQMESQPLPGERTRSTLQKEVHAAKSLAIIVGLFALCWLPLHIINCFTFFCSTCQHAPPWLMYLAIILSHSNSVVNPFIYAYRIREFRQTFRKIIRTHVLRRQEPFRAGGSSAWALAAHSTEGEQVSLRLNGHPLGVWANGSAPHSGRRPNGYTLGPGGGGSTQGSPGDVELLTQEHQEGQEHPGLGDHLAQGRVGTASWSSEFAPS

[11] = Stability in liver microsomes, rat; assay type: in vitro ADME
[12] = target: hM1 muscarinic receptor (Homo sapiens (Human), UniProt P11229); assay: Off-target binding, M1
Description: as §2

[13] = target: hM3 muscarinic receptor (Homo sapiens (Human), UniProt P20309); assay: Off-target binding, M3
Chain of hM3 muscarinic receptor (P20309 whole entry, looked up): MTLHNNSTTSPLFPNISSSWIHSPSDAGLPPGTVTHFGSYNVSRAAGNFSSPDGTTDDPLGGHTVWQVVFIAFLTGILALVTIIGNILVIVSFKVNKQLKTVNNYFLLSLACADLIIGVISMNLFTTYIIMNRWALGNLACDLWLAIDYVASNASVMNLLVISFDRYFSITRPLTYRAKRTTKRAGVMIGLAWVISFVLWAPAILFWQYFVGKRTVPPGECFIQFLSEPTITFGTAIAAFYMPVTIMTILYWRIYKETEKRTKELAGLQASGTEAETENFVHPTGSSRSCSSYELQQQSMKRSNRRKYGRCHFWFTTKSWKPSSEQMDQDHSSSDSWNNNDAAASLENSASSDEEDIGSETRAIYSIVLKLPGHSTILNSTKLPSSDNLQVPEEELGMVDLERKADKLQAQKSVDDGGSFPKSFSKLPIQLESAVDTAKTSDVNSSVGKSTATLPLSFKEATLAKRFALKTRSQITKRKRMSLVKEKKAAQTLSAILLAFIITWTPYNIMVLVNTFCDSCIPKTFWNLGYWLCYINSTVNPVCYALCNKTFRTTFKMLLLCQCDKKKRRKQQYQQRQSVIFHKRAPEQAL

[14] = % Unbound in plasma, rat; assay type: in vitro ADME
[15] = Stability in liver microsomes, mouse; assay type: in vitro ADME
[16] = % Unbound in plasma, mouse; assay type: in vitro ADME
[17] = target: h5HT6 (Homo sapiens (Human), UniProt P50406); assay: Off-target binding, 5HT6
Chain of h5HT6 (P50406 whole entry): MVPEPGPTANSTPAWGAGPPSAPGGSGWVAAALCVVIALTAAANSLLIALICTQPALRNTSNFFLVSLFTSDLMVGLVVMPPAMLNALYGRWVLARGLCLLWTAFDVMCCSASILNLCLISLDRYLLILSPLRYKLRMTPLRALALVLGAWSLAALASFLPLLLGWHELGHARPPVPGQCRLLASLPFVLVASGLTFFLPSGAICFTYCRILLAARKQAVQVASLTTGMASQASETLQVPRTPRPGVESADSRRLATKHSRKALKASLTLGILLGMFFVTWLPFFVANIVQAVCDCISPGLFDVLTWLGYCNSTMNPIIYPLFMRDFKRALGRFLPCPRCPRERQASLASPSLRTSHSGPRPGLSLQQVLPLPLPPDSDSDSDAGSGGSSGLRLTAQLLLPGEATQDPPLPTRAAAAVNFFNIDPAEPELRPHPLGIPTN

[18] = target: hA1AR (Homo sapiens (Human), UniProt P30542); assay: Radioligand binding at hA1AR, CHO cell membranes, [3H]R-PIA; details: inhibition of binding at 10 μM
[19] = system: muscarinic, adrenergic, dopamine, GABA, histamine, opiate, serotonin receptors and transporters; assay: Off-target binding panel (receptors and transporters of Table 5)
Description: as §2

[20] = % Unbound in plasma, human; assay type: in vitro ADME
[21] = target: hM4 muscarinic receptor (Homo sapiens (Human), UniProt P08173); assay: Off-target binding, M4
[22] = Aqueous solubility; assay type: physicochemical
[23] = system: 5 CYP isozymes (1A2, 2C9, 2C19, 2D6, 3A4); assay: Inhibition of 5 CYP isozymes; assay type: in vitro ADME; details: read-out: Inhibition of 5 CYP isozymes: IC50
[24] = target: h5HT7 (Homo sapiens (Human), UniProt P34969); assay: Off-target binding, 5HT7
Chain of h5HT7 (P34969 whole entry): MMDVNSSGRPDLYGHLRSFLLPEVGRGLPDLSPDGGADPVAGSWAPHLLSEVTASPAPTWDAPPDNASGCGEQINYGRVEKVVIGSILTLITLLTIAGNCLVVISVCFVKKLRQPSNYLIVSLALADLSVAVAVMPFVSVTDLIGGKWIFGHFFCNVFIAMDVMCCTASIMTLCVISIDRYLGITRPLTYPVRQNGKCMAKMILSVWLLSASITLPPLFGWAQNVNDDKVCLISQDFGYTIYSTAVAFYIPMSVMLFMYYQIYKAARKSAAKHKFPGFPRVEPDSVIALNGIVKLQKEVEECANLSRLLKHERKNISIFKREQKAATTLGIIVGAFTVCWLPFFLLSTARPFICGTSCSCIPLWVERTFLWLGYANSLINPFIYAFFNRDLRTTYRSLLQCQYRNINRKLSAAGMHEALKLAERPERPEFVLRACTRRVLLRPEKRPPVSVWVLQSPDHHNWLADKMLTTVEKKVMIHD

[25] = target: Alpha 2C adrenergic receptor (Homo sapiens (Human), UniProt P18825); assay: Off-target binding, α2C; details: read-out: Ki at α2C
Chain of Alpha 2C adrenergic receptor (P18825 whole entry): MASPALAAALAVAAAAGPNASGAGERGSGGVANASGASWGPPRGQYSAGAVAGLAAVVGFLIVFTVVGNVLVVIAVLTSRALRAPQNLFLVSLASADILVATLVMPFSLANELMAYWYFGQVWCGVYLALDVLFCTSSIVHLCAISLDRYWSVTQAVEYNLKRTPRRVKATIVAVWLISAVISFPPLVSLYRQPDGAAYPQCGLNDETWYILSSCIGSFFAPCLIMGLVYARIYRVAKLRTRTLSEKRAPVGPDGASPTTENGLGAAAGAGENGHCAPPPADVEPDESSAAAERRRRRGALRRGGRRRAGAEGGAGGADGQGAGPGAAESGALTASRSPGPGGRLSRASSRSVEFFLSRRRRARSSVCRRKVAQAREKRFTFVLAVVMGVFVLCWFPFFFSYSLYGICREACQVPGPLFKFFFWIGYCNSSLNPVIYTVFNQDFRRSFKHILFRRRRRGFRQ
Description: as §2

[26] = system: chronic constriction injury model of neuropathic pain; assay: CCI model of neuropathic pain, reversal of mechano-allodynia; assay type: in vivo, mice
[27] = target: mA3AR (Mus musculus (Mouse), UniProt Q61618); assay: Competition binding at mA3AR, HEK293 cell membranes
Chain of mA3AR (Q61618 whole entry): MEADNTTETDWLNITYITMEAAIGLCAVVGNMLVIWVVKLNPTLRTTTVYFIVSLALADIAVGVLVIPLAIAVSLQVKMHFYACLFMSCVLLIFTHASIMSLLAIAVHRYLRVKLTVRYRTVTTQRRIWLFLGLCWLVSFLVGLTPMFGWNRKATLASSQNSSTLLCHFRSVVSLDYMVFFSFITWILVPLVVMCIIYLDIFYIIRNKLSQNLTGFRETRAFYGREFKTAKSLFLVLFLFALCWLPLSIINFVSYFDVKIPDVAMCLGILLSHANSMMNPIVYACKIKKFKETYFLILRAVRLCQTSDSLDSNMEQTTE

[28] = 3 μmol/kg p.o., mice, ipsilateral hind paw

Substance: (1S,2R,3S,4R,5S)-4-(2-((Ferrocen-yl)ethynyl)-6-(methylamino)-9H-purin-9-yl)-2,3-dihydroxy-N-methylbicyclo[3.1.0]hexane-1-carboxamide [Compound 37]
- Ki [1]: < 10 µM
- Stability in simulated fluids (t1/2, min): Gastric ([2]; simulated gastric fluid): 46.5 min
- Stability in simulated fluids (t1/2, min): Intestinal ([2]; simulated intestinal fluid): 174 min
- Ki [3]: < 10 µM
- Ki [4]: 0.00268 ± 0.00044 µM
- Ki [5]: < 10 µM
- IC50 [6]: 9.4 µM
- A1AR % inhibition, mouse data (m) [7]: 45% ± 2%
- Ki [8]: < 10 µM
- Stability in liver microsomes (t1/2, min): Human [9]: 3.66 min
- A2AAR % inhibition, mouse data (m) [10]: 4% ± 2%
- Stability in liver microsomes (t1/2, min): Rat [11]: 6.64 min
- Ki [12]: < 10 µM
- Ki [13]: < 10 µM
- % Unbound in plasma: Rat [14]: 6.32%
- Stability in liver microsomes (t1/2, min): Mouse [15]: 1.98 min
- % Unbound in plasma: Mouse [16]: 4.85%
- Ki [17]: < 10 µM
- hA1AR % inhibition [18]: 25 ± 2%
- Off-target effects compared with MRS5698 and MRS5676 [19]: significantly fewer off-target effects
- Interactions at other receptors of the off-target panel ([19]; 10 μM): No significant interactions
- % Unbound in plasma: Human [20]: 7.00%
- Ki [21]: < 10 µM
- Aq. Solubility (pH 7.4, μg/mL) [22]: 14.5 ± 1.0 μg/mL
- IC50 [23]: > 9 µM
- Ki [24]: < 10 µM
- Ki [25]: < 10 µM
- Effect at 3 h (% ± SEM) ([26]; 3 μmol/kg p.o., mice, 3 h): 78 ± 3%
- Max. effect Emax (% ± SEM) [26, 28]: 94 ± 6%
- Time of peak protection [26, 28]: 0.5 to 3 h
- Efficacy in reversing NP in vivo (of full reversal at peak effect) ([26]; CCI model): ~100%
- Ki [27]: 0.00546 ± 0.00067 µM
